These results are taken from ChEMBL document CHEMBL5352409, “Design, synthesis, and pharmacological evaluation of 2-(1-(1,3,4-thiadiazol-2-yl)piperidin-4-yl)ethan-1-ol analogs as novel glutaminase 1 inhibitors” (Eur J Med Chem, 2022).

A word on the half-life: it is how long it takes for the measured level to halve. As usually defined, the IC50 is the midpoint of a concentration-inhibition curve. For orientation: Cmax means the highest concentration seen after dosing. A word on the bioavailability: it is the share of a dose that reaches the circulation, judged against a reference dose that is usually intravenous. As a reminder, the AUC(0-t) is exposure summed from dosing to a finite time, without extrapolation to infinity.

Structures are written as SMILES. Active and inactive are the calls of the source. The calls are words filed in the database; no cut-off is given here.

Data set [1] has as its system A549. The data set is described as follows: Inhibition of glutaminase in human A549 cells assessed as ratio of glutamine to glutamate level (Rv b= 0.45 +/- 0.011). The format is cell-based.
A further data set can be described thus: in vitro. The note with it: human, liver microsomes. A general note: Microsomes from liver hold many membrane-bound enzymes, among them those of drug oxidation.
Data set [2] relates to HCT-116. In words: Inhibition of colony formation in human HCT-116 cells at 2 to 8 uM. The note with it: dose 2-8 µM. The format is functional, cell-based.
In data set [3] the test system is HCT-116. In words: cells. The note with it: Homo sapiens.
For data set [4], the target named is T1, Glutaminase kidney isoform, mitochondrial (Homo sapiens, UniProt O94925).
T1 sequence (O94925 whole entry): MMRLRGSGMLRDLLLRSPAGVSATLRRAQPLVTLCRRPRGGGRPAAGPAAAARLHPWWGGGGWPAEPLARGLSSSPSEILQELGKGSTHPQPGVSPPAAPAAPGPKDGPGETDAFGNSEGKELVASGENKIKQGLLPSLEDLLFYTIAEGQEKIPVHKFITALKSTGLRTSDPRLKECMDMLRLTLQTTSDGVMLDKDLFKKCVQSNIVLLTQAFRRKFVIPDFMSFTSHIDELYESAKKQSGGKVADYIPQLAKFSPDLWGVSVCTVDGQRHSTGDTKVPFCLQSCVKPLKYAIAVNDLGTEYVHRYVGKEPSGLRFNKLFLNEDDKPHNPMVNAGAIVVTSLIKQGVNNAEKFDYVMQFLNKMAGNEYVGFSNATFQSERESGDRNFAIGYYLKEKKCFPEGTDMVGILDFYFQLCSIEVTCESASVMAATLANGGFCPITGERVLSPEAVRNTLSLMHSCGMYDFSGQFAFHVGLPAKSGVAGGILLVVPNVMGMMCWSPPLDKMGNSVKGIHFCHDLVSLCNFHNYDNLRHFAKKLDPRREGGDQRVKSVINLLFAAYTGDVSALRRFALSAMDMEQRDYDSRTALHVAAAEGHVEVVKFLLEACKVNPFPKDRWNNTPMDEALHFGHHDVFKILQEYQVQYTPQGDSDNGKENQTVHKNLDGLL
In words: Inhibition of GLS1 (unknown origin).

Data set [5] has as its target T2, Glutaminase liver isoform, mitochondrial (Homo sapiens, UniProt Q9UI32).
T2 sequence (Q9UI32 whole entry): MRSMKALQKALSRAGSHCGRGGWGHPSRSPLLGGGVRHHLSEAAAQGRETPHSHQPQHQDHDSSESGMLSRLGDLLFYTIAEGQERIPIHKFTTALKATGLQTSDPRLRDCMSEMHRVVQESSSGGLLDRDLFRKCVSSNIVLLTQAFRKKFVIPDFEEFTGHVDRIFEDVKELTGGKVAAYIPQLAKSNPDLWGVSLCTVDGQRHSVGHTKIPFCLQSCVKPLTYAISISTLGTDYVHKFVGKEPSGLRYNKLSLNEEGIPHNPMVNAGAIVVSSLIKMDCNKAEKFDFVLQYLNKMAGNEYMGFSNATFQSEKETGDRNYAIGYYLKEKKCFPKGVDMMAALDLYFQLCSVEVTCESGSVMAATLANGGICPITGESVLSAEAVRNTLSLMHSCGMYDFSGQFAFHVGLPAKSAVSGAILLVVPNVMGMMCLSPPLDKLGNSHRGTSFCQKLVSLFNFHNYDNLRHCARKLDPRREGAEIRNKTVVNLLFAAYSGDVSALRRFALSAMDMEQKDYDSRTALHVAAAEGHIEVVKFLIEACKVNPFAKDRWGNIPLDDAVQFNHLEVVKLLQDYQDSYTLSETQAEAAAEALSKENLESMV
The data set is described as follows: Inhibition of GLS2 (unknown origin).

In data set [6] the target is T3, Glutaminase kidney isoform, mitochondrial (Homo sapiens) (UniProt O94925).
T3 sequence (whole entry): T1 sequence (O94925 whole entry)
The data set is described as follows: Potency index, ratio of BPTES IC50 to test compound IC50 for inhibition of GLS1 (unknown origin).

The next data set is filed under the species Homo sapiens. In words: Selectivity ratio of IC50 for GLS2 (unknown origin) to IC50 for GLS1 (unknown origin).
The conditions of data set [7]: human, microsomes.
Description: Metabolic stability in human liver microsome assessed as intrinsic clearance
Data set [8] has as its system A549. The data set is described as follows: Antiproliferative activity against human A549 cells assessed as reduction in cell viability. The format is functional, cell-based.
Data set [9] relates to A549. In words: Inhibition of colony formation in human A549 cells at 2 to 8 uM. The format is functional, cell-based. To be noted: dose 2-8 µM.
For data set [10], the system named is HCT-116. In words: Potency index, ratio of BPTES IC50 to test compound IC50 for antiproliferative activity against human HCT-116 cells. In kind it is functional.
In data set [11] the test system is A549. In words: Potency index, ratio of BPTES IC50 to test compound IC50 for antiproliferative activity against human A549 cells. In kind it is functional.
In data set [12] the test system is A549. The data set is described as follows: Induction of apoptosis in human A549 cells assessed as late apoptotic cells at 1 uM incubated for 48 hrs by annexin V-FITC and propidium iodide based flow cytometry analysis (Rvb =9.696%). The format is functional.
Data set [13] is described as follows: Cmax in rat at 5 mg/kg, iv. In kind it is ADME, organism-based. Further details: dose 5 mg/kg, route iv. To be noted: in vivo.
Data set [14] in a line: in vivo. The note with it: rat, po, 5 mg/kg.
Data set [15] deals with HCT-116. In words: Antitumor activity against human HCT-116 cells xenografted in mouse model assessed as reduction in tumor cells at 100 mg/kg administered via oral gavage for 28 days. In kind it is functional, organism-based. To be noted: time 28.0 day. (In general: Xenograft models place foreign cells or tissue in a host animal.)
The nature of data set [16]: in vivo. The note with it: rat, iv, 5 mg/kg.
The test system of data set [17] is A549. The data set is described as follows: Induction of apoptosis in human A549 cells assessed as early apoptotic cells at 5 uM incubated for 48 hrs by annexin V-FITC and propidium iodide based flow cytometry analysis (Rvb =12.289%). In kind it is functional. On the technique in general: A flow cytometer gives signals particle by particle.
The test system of data set [18] is A549. The data set is described as follows: Induction of apoptosis in human A549 cells assessed as late apoptotic cells at 5 uM incubated for 48 hrs by annexin V-FITC and propidium iodide based flow cytometry analysis (Rvb =9.696%). The format is functional.
Data set [19] has as its system A549. In words: Antitumor activity against human A549 cells xenografted in mouse model assessed as tumor growth inhibition at 100 mg/kg once daily via oral gavage administered for 28 days relative to control. The note with it: time 28 day. The format is functional. Details: scale not given: the % may be the effect or the level left.
The nature of data set [20]: AUC(0 to t) in rat at 5 mg/kg, iv. The note with it: in vivo. In kind it is ADME, organism-based. Further details: dose 5 mg/kg, route iv.
Data set [21] can be described thus: Oral bioavailability in rat at 5 mg/kg. The note with it: in vivo. In kind it is ADME, organism-based.
Data set [22] can be described thus: Cmax in rat at 5 mg/kg, po. In kind it is ADME, organism-based. Details: dose 5 mg/kg, route po. To be noted: in vivo.
Data set [23] relates to HCT-116. The data set is described as follows: Antitumor activity against human HCT-116 cells xenografted in mouse model assessed as tumor growth inhibition at 100 mg/kg once daily via oral gavage administered for 28 days relative to control. In kind it is functional. Details: scale not given: the % may be the effect or the level left. The note with it: time 28 day.
Data set [24] in a line: AUC(0 to t) in rat at 5 mg/kg, po. The format is ADME, organism-based. Details: dose 5 mg/kg, route po. To be noted: in vivo.
Data set [25] is described as follows: AUC(0 to t) in rat at 3 mg/kg, iv. In kind it is ADME, organism-based. Details: dose 3 mg/kg, route iv. To be noted: in vivo.
Data set [26] relates to A549. In words: Induction of apoptosis in human A549 cells assessed as early apoptotic cells at 10 uM incubated for 48 hrs by annexin V-FITC and propidium iodide based flow cytometry analysis (Rvb =12.289%). In kind it is functional.
Data set [27] relates to A549. The data set is described as follows: Induction of apoptosis in human A549 cells assessed as late apoptotic cells at 10 uM incubated for 48 hrs by annexin V-FITC and propidium iodide based flow cytometry analysis (Rvb =9.696%). The format is functional.
The subject of data set [28] is A549. The data set is described as follows: Induction of apoptosis in human A549 cells assessed as early apoptotic cells at 1 uM incubated for 48 hrs by annexin V-FITC and propidium iodide based flow cytometry analysis (Rvb =12.289%). The format is functional.

On to `Cc1ccccc1CN1CCC(CNC(=O)c2cccc(COCCC3CCN(c4nnc(NC(=O)Cc5ccccc5)s4)CC3)c2)CC1`, for which, in the data set with A549 [1], the Ratio was found to be 1.49. The compound also showed a half-life in the data set “in vitro” above 2 h. The inhibition entry in the data set on HCT-116 [2] and in the data set with A549 [9] was “Active” throughout. Besides, the half-maximal inhibitory concentration (IC50) in the data set on HCT-116 [3] was 550 nM; in data set [4], 85 nM; in [5], above 15000 nM; in the data set on A549 [8], 980 nM. Also, the Ratio IC50 was 50 in data set [6] and above 100 in the data set listed under Homo sapiens. The CLH in data set [7] worked out at 46.8 g/mL/min.
For `CN1CCN(c2cccc(NC(=O)c3cccc(CN4CCN(c5nnc(NC(=O)Cc6ccccc6)s5)CC4)c3)c2)CC1`, in the data set on A549 [1], the Ratio stood at 1.17. For the same compound, the half-life in “in vitro” is above 2 h. The inhibition result with HCT-116 [2] and in the data set with A549 [9] was “Active” in each case. The IC50 was 1130 nM in the data set with HCT-116 [3], 65 nM in data set [4], above 15000 nM in data set [5] and 870 nM in the data set on A549 [8]. For the same compound, in the data set filed under Homo sapiens, the Ratio IC50 was above 100. Also, the CLH in data set [7] was 21.2 g/mL/min.
`CCCN1CCC(CNC(=O)c2ccc(COCCC3CCN(c4nnc(NC(=O)Cc5ccccc5)s4)CC3)cc2)CC1`: the IC50 in the data set with HCT-116 [3] was 1690 nM; in data set [4], 290 nM; with A549 [8], 1320 nM. Further, the “Ratio IC50” value in the data set on HCT-116 [10] and with A549 [11] was 20 throughout.
In the case of `CN1CCC(CNC(=O)c2ccc(COCCC3CCN(c4nnc(NC(=O)Cc5ccccc5)s4)CC3)cc2)CC1`, the IC50 was 1510 nM in the data set on HCT-116 [3], 320 nM in data set [4] and 2310 nM with A549 [8]. Also, the “Ratio IC50” value in the data set with HCT-116 [10] and in the data set with A549 [11] was 20 each time.
On to `O=C(Cc1ccccc1)Nc1nnc(CCSCCc2nnc(NC(=O)Cc3ccccc3)s2)s1`, for which the Activity is 8.746% with A549 [12]; 15.055% in the data set with A549 [17]; 11.666% in the data set on A549 [18]; 18.8% in the data set with A549 [19]; 22.3% in the data set on HCT-116 [23]; 9.331% in the data set with A549 [26]. Further, the Activity is listed as 14.31% in the data set with A549 [27] and 15.403% in the data set with A549 [28]. Further, the maximum concentration (Cmax) amounted to 493 ng/mL in data set [13] and 17.8 ng/mL in data set [22]. The inhibition result with HCT-116 [2] and with A549 [9] was “Active” each time. The figures for the IC50 in the data set on HCT-116 [3] and with A549 [8] were 44000 nM and 49000 nM, respectively. Further, the half-life is 2.6 h in the data set “in vivo [14]” and 3.8 h in “in vivo [16]”. Further, in the data set on HCT-116 [15], the outcome was Active. Further, the AUCt in data set [20] is 543.3 ng·h/mL. Besides, the bioavailability in data set [21] came to 2.3%. The results for the AUC(0-t) in [24] and in data set [25] were 12.5 ng·h/mL and 2090 ng·h/mL, respectively.
Take `CN1CCN(c2ccc(C(=O)Nc3ccc(CN4CCN(c5nnc(NC(=O)Cc6ccccc6)s5)CC4)cc3)cc2)CC1`: in the data set on A549 [1], the Ratio is 0.8. In addition, the half-life in “in vitro” was found to be 1.12 h. The IC50 was 530 nM in the data set with HCT-116 [3], 66 nM in data set [4], above 15000 nM in data set [5] and 760 nM in the data set on A549 [8]. Also, the Ratio IC50 in the data set filed under Homo sapiens was above 100. Moreover, the CLH in data set [7] is 56.4 g/mL/min.
Turning to `C=CCCC(=O)N1CCC(CNC(=O)c2ccc(COCCC3CCN(c4nnc(NC(=O)Cc5ccccc5)s4)CC3)cc2)CC1`, the inhibition entry with HCT-116 [2] and in the data set with A549 [9] was “Active” in each case. In addition, the IC50 in the data set on HCT-116 [3] worked out at 2070 nM; in data set [4] it was 268 nM; in the data set with A549 [8], 1360 nM.
